These results are taken from patent publication US11072596B2, “Poly(ADP-ribose) polymerase inhibitor, preparation method and use” (SELECTION BIOSCIENCE LLC, priority 2017, dated 2021).

The target in one series is T1, CYP3A4 (Homo sapiens, UniProt P08684).
T1 construct: from tissue; host or cells: human liver microsomes (HLM)
Briefly: Inhibition of human liver microsomal CYP450 enzymes, CYP3A4. Type of series: in vitro ADME. Particulars: human liver microsomes, Reference = ketoconazole. A general note: Microsomes from liver hold many membrane-bound enzymes, among them those of drug oxidation.

A further series has as its target T2, CYP2D6 (Homo sapiens, UniProt P10635).
T2 construct: from tissue; host or cells: human liver microsomes (HLM)
The experiment in a line: Inhibition of human liver microsomal CYP450 enzymes, CYP2D6. Particulars: human liver microsomes, substrate Bufuralol 10 μM; Reference = quinidine; read-out: IC50 2D6. It counts as in vitro ADME. The protocol: (§1) The inhibitory effects of the compound of the present disclosure on the CYP450 enzymes of six human subtypes were determined by the following experimental method:
(§2) Reference compounds of each subtype: CYP1A2: α-naphthoflavone; CYP2C9: sulfaphenazole; CYP2C19: omeprazole; CYP3A4: ketoconazole; CYP2D6: quinidine.
(§3) Substrate concentration: CYP1A2: Phenacetin at 30 μM; CYP2C9: Diclofenac at 10 μM; CYP2C19: S-Mephenytoin at 35 μM; CYP3A4: Midazolam at 5 μM and Testosterone at 80 μM; CYP2D6: Bufuralol at 10 μM.
(§4) 6. 0.2 mg/mL of HLM was added to the test wells, 400 μL per well, and then the gradient diluted 400× test compound was added to the corresponding wells.
(§5) 7. 0.2 mg/mL of HLM was added to the test wells, 200 μL per well, and then the gradient-diluted reference inhibitor was added to the corresponding wells. Steps 6 and 7 needed to be performed on ice.
(§6) 8.1. 30 μL of test compound and reference compound were mixed in 0.2 mg/mL of HLM solution (see steps 6 and 7).
(§7) 8.2. 15 μL of 4× substrate solution (see step 4) was added.
(§8) 10. Preheated 8 mM of NADPH solution was added to the 96-well test plate (see step 3) to initiate the reaction, 15 μL per well.
(§9) 11. The test plate was incubated at 37° C.: 3A4 for 5 minutes, each of 1A2, 2C9 and 2D6 for 10 minutes, and 2C19 for 45 minutes.
(§10) 12. ACN containing internal reference was added to stop the reaction, 120 μL per well.
14. […]

For another series, the target named is T3, CYP2C9 (Homo sapiens, UniProt P11712).
T3 construct: from tissue; host or cells: human liver microsomes (HLM)
T3 sequence (P11712 whole entry): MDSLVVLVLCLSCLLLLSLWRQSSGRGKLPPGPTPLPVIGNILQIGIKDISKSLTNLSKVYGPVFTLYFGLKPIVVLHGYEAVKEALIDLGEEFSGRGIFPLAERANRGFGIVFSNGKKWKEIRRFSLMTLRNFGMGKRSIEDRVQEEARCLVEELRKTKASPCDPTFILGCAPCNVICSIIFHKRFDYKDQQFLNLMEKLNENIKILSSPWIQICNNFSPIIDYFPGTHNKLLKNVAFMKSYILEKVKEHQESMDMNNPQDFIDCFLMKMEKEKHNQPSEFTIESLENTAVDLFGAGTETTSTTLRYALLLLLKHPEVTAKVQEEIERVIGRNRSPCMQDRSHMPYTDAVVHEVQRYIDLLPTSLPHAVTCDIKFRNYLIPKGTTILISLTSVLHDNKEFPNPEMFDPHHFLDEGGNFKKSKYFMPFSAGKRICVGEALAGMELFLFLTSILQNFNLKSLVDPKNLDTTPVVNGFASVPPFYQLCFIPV
The experiment in a line: Inhibition of human liver microsomal CYP450 enzymes, CYP2C9. It counts as in vitro ADME. The conditions noted are these: human liver microsomes, substrate Diclofenac 10 μM; Reference = sulfaphenazole; read-out: IC50 2C9. On the procedure:
as §1, §2, §3, §4, §5, §6, §7, §8, §9, §10
14. […]

In another series the target is T4, PARP1 (Homo sapiens, UniProt P09874).
T4 construct: purchased BPS 80580
T4 sequence (P09874 whole entry): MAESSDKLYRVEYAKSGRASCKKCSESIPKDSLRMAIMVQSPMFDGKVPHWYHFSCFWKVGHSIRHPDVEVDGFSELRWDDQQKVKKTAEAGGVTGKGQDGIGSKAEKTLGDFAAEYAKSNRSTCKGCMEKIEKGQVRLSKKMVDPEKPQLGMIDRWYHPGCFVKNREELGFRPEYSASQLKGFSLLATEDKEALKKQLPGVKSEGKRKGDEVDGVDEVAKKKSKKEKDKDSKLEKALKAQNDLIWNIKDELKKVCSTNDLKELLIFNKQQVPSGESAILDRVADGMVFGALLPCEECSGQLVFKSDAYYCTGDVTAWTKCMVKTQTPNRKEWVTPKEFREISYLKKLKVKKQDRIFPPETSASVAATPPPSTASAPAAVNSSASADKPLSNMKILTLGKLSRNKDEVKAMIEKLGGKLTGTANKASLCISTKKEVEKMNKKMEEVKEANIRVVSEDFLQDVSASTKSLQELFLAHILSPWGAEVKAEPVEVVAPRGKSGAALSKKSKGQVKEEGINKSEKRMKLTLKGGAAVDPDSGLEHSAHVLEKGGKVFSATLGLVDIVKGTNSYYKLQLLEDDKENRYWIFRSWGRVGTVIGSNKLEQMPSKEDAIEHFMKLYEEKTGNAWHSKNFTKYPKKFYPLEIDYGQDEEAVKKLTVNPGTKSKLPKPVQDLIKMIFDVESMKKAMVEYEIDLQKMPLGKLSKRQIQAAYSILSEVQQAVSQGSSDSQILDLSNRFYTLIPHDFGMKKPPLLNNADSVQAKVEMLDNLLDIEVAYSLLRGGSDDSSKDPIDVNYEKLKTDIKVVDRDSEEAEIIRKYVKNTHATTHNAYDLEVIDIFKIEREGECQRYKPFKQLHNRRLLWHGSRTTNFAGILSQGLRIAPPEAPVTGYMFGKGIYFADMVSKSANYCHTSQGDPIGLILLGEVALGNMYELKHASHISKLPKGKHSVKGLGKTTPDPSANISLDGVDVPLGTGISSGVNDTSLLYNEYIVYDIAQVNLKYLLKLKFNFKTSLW
The experiment in a line: PARP1 Colorimetric Assay (PARP-1 kinase inhibitory activity). It counts as biochemical. Particulars: PARP1 colorimetric assay kit, 1 hour at room temperature; read-out: PARP1 (in vitro enzymatic inhibitory activity, IC50). On the procedure:
PARP1 kinase activity was tested by the following method:
PARP1 Colorimetric Assay Kit (BPS, Cat #80580)
1. PARP1 Colorimetric Assay
2) 50 μL of diluted coating solution was added to each well for overnight at 4° C.
4) 200 μL of blocking buffer was added to each well and incubated at room temperature for 90 minutes.
1) A reaction solution was prepared in a ratio of […] 2.5 μL 10×PARP buffer+2.5 μL 10×PARP Assay mixture+5 μL Activated DNA+15 μL deionized water per well, and 25 μL of the reaction solution was added to each well (see Table 1).
4) 100 μL of colorimetric HRP substrate was added to each well and reacted at room temperature for 20 minutes.
5) 100 μL of 2 M H2SO4 was added to each well and OD 450 nm was read on a microplate reader.

Series [1] is described as follows: Liver microsomal stability in vitro, mouse. It counts as in vitro ADME. Particulars: pH 7.4; mouse liver microsomes 0.5 mg protein/mL, 1 μM test compound, 37° C.; read-out: Mouse T1/2. On the procedure: Evaluation of in vitro liver microsomal stability of the compound of the present disclosure was tested by the following method:
Buffer: 100 mM potassium phosphate buffer, pH 7.4; […] MgCl2.
Liver microsomes: human liver microsomes, Corning Cat No. 452117; Rat liver microsomes, Xenotech Cat No. R1000; Mouse liver microsomes, Xenotech Cat No. M1000; Dog liver microsomes, Xenotech Cat No. D1000; Liver microsomes of cynomolgus monkey, Corning Cat No. 452413, the final concentration was 0.5 mg protein/mL.
1. Intermediate solution: 5 μL of compound or control in stock solution (10 mM) was diluted with 495 μL of methanol (concentration: 100 μM, 99% MeOH).
2. Operating solution: the intermediate solution was diluted […] with 450 μL 100 mM potassium phosphate buffer (concentration: 10 μM, 9.9% MeOH).
1. 10 μL of compound or control solution per well was added to all plates (T0, T5, T10, T20, T30, T60, NCF60) except matrix blank.
2. Microsome solution was distributed to 96-well plates according to platemap for standby, 680 μL per well, and the mixture of microsome solution and the compound was incubated at 37° C. for about 10 minutes.
4. […]
10. Data analysis: The peak area of the corresponding compound and internal standard was detected by LC-MS/MS, and the T1/2 of the compound was calculated by the following formula: […]

pIC50: −log10 of the molar value. Read-outs that look alike come from different tables or passages of the source.

T1 sequence (P08684 whole entry): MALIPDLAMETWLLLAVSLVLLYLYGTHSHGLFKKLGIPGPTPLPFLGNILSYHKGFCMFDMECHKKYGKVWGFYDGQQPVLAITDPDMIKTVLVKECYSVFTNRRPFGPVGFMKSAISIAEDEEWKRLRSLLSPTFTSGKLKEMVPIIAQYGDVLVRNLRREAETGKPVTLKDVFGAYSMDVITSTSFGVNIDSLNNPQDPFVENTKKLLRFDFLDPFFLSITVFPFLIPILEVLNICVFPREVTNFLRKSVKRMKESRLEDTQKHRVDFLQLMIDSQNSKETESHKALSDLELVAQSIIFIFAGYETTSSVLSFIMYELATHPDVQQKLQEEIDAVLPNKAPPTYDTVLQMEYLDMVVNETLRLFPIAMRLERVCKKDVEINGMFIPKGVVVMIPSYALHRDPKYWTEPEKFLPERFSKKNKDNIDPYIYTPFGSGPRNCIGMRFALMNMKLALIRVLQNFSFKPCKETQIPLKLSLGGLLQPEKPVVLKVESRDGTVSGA
T2 sequence (P10635 whole entry): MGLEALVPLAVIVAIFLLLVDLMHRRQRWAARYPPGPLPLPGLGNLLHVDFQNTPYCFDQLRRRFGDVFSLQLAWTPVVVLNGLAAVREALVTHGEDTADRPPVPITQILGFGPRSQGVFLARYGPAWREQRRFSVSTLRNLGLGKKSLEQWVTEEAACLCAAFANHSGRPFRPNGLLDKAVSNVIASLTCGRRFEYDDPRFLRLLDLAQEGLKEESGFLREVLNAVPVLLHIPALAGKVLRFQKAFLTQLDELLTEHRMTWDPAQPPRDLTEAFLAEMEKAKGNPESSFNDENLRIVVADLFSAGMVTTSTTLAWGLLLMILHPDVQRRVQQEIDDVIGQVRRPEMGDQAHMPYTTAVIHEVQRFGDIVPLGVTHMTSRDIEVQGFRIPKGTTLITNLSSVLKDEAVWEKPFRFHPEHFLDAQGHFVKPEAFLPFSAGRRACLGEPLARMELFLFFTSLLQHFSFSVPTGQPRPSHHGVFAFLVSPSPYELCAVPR
Method for CYP3A4: 50 μL of supernatant from each well was transferred to a 96-well sample plate containing 50 μL of ultrapure water (Millipore, ZMQS50F01) for LC/MS analysis. […]

For orientation: pIC50 means −log10 of the IC50, conventionally taken in molar units. On to `NC(=O)c1cccc2cn(-c3ccc([C@]4(F)CCCNC4)cc3)nc12` (single isomer, unassigned) [Example 23, (R or S)-2-(4-(3-fluoropiperidin-3-yl)phenyl)-2H-indazole-7-carboxamide], for which the pIC50 is less than 5.00 on CYP3A4 (substrate Midazolam 5 μM, read-out: IC50 3A4 (Midazolam)); less than 5.00 at CYP3A4 (substrate Testosterone 80 μM, read-out: IC50 3A4 (Testosterone)); less than 5.00 at CYP2D6; less than 5.00 on CYP2C9; greater than 7.00 on PARP1. Moreover, the half-life at 1 μM in series [1] was found to be 1.02 h.

Turning to `NC(=O)c1cccc2cn(-c3ccc([C@@H]4CCCNC4)cc3)nc12` [Niraparib, reference compound], the pIC50 on CYP2D6 and on CYP2C9 was less than 5.00 in each case. Moreover, the half-life at 1 μM in series [1] stood at 1.83 h.
